Reference: US20210046061A1, “METHODS AND COMPOSITIONS FOR TREATING HERPESVIRUS INDUCED CONDITIONS” (TRUSTEES OF BOSTON UNIVERSITY, priority 2015, published 2021)

What was measured:
[1] = system: viral TK (EBV thymidine kinase) transcript in P3HR1 cells; test: Thymidine kinase (TK) mRNA expression assay, quantitative real-time RT-PCR; format: cell-based, human; settings: 24 hrs exposure, mRNA by RT-PCR
Protocol: (§1) To measure whether Chidamide could induce EBV associated transcripts, the induction of mRNA for the protein kinases TK (FIG. 1A) and BGLF4 (FIG. 1B) in EBV-positive lymphoma cell lines was measured after exposure to different concentrations of the short-chain fatty acid, sodium butyrate (NaB), or the benzamide, chidamide (chid), for 24 hrs. Transcripts were quantitated by quantitative real-time RT-PCR.
(§2) The EBV-positive B lymphoma cell line P3HR1 was used in the study. The P3HR1 cell line was originally derived from Burkitt's lymphoma patient. EBV maintains a latent state of replication in this cell line. These cells were maintained in RPMI 1640 with 10% fetal bovine serum containing 100 U penicillin per ml and 100 μg streptomycin per ml.
(§3) P3HR1 cells were seeded in 60 mm plates containing 3×10^6 cells in 3 ml of fresh growth media. Appropriate concentrations of HDAC inhibitors were added to the plate and cells were incubated in the presence of HDAC inhibitors for 6 h, 24 h, 48 h, or as needed. Cells were harvested by centrifugation and washed once in cold PBS. Total cellular RNA was then extracted. To measure the relative level of TK mRNA in various total RNA preparations, reverse transcription and quantitative PCR using real time PCR analysis were used. […] The relative level of TK expression in a sample was calculated following normalization of β-actin expression level.

[2] = system: BGLF4 (EBV-PK) transcript in P3HR1 cells; test: Protein kinase (BGLF4) mRNA expression assay, quantitative real-time RT-PCR; format: cell-based, human; settings: 24 hrs exposure, mRNA by RT-PCR
Protocol: as §1, §2, §3

[3] = system: EBV-positive B lymphoma cell line P3HR1; test: Drug sensitivity assay: HDAC inhibitor plus ganciclovir, viable cell count by trypan blue; format: cell-based, human; settings: both combined with ganciclovir; living cells counted on day 6
Protocol: To determine tumor cytotoxic activity of the combination of HDACi and GCV, EBV+ lymphoma cells were exposed to a range of concentrations of sodium butyrate or chidamide […] for 3 days and then to GCV alone for another 3 days (FIG. 1C). Efficacy of either sodium butyrate or chidamide in the combination treatment approach was then determined by enumerating living cells. A general experimental protocol is described below.
as §2
To test the sensitivity of EBV-positive lymphoma cells towards chidamide, P3HR1 cells were treated with chidamide in the presence of one anti-viral drug. At the end of the assay, the efficacy of chidamide was assessed by measuring the inhibition of cell growth compared to untreated cells.
Healthy, actively-growing P3HR1 cells were harvested and resuspended in fresh growth media. Cells were seeded in wells. […] On day 6, cell morphology was observed under a microscope and viable cell counts in each individual well was determined by the trypan blue dye exclusion method using an automated cell counter (Countess, Invitrogen).

[4] = system: EBV; test: EBV viral load in patient with post-transplant EBV positive lymphoma; format: in vivo, human; settings: one patient; arginine butyrate and daily ganciclovir; after 3 weeks of treatment; before treatment (Week 1) 27,782
Protocol: (§4) Levels were determined before treatment (week1) and after 3 weeks of treatment (week 3).

[5] = system: CMV; test: CMV viral load in patient with post-transplant EBV positive lymphoma; format: in vivo, human; settings: one patient; arginine butyrate and daily ganciclovir; after 3 weeks of treatment; before treatment (Week 1) 12,300
Protocol: as §4

[6] = system: HHV-6; test: HHV-6 viral load in patient with post-transplant EBV positive lymphoma; format: in vivo, human; settings: one patient; arginine butyrate and daily ganciclovir; after 3 weeks of treatment; before treatment (Week 1) 658,882
Protocol: as §4

[7] = system: relapsed or refractory EBV-positive lymphoid tumors; settings: arginine butyrate and GCV; of 15 patients; cited from earlier work

In the case of `Nc1cc(F)ccc1NC(=O)c1ccc(CNC(=O)/C=C/c2cccnc2)cc1` [chidamide], the “concentration at which induction of viral TK expression begins” value [1] is reported as 500 nM, the “concentration at which induction of BGLF4 expression begins” value [2] is reported as 500 nM and the “concentration of chidamide as good in killing as 1.0 mM sodium butyrate” value [3] is reported as 104.
In the case of arginine butyrate, the “EBV viral load, Week 3” value [4] is reported as 1,486 Copies per mL, the “CMV viral load, Week 3” value [5] is reported as 1,600 Copies per mL and the “HHV-6 viral load, Week 3” value [6] is reported as 805 Copies per mL. The “patients who achieved complete tumor remissions” value [7] was 4 patients and the “patients who achieved partial tumor remissions” value [7] was 6 patients.
